US12053456B2, “Pharmaceutical compositions for combination therapy” (GENFIT, priority 2017, dated 2024)

Test system: α-SMA in TGFβ1-induced hHSC
Assay: α-SMA ELISA in TGFβ1-activated human primary hepatic stellate cells (single agents and combination matrix, EOB/EOHSA)
Type: cell-based
Conditions: single agent, 1 hour preincubation, TGFβ1 1 ng/ml, 48 hours
Experimental: Serum-deprived HSC were preincubated for 1 hour with Elafibranor (A) or Nitazoxanide (B), or Bezafibrate (C) before the activation with the profibrogenic cytokine TGFβ1 (1 ng/ml). After 48 hours of incubation, the expression of α-SMA was measured by ELISA. The obtained values were transformed into percentage inhibition over TGFβ1 control. Data are presented as mean (triplicates)±standard deviation (SD)]. The curve fitting and the calculation of half maximal inhibitory concentration (IC50) were performed with XLFit software 5.3.1.3.
Combinations were tested in a dose-response matrix format and analyzed according to the excess over Bliss (EOB) additivism model. Dilution series of Elafibranor (row) and Nitazoxanide (column) were prepared, including their respective DMSO controls. The resulting mixes were added to serum-deprived HSC, 1 hour prior to the activation with the profibrogenic cytokine TGFβ1 (1 ng/ml). […] (B) EOB scores were calculated as described in Materials and Methods. […] The total EOB score including all combinations was also calculated. […]
Combinations were tested in a dose-response matrix format and analyzed according to the excess over Bliss (EOB) additivism model. […] Percentage of α-SMA inhibition over the TGFβ1 control for all combination pairs was calculated. EOB scores were calculated as described in Materials and Methods. […]

## O=C(Nc1ncc([N+](=O)[O-])s1)c1ccccc1O [TZ, tizoxanide]
  antifibrotic activity (α-SMA) in TGFβ-induced hHSC: profile similar to the parent drug
